Assay results taken from US20240116985A1, “STAPLED PEPTIDES AND METHODS THEREOF” (priority 2020, published 2024).
Read-outs that look alike come from different tables or passages of the source.

Experiments:
[1] = target: T1, full-length beta-Catenin (Uniprot ID P35222) (Homo sapiens, UniProt P35222); test: Fluorescence polarization IC50 (beta-catenin / 5FAM-TCF4 10-53 competition); type: binding
T1 construct: 10 nM full-length beta-Catenin (Uniprot ID P35222)
T1 sequence (P35222 1-781): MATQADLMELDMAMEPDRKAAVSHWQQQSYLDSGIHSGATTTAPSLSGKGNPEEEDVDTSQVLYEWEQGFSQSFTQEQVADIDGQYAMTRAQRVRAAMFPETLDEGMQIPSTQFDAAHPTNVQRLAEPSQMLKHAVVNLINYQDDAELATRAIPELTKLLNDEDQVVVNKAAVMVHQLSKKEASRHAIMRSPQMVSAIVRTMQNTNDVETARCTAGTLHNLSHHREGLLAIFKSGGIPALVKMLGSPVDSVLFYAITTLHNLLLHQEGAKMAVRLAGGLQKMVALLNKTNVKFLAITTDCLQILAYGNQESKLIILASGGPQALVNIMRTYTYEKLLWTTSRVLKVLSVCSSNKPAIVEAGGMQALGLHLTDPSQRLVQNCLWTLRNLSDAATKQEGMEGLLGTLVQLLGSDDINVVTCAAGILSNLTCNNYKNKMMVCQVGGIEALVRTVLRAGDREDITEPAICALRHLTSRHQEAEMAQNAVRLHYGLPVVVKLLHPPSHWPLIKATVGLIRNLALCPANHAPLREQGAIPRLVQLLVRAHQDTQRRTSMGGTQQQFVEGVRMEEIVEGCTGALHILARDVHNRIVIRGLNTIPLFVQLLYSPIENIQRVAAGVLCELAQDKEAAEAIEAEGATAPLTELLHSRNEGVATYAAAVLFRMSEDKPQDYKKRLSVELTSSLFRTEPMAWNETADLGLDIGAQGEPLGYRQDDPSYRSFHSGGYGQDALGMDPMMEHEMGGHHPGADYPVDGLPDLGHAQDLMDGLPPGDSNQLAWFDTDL

[2] = target: T2, beta-catenin/TCF4 engagement (Homo sapiens, UniProt P35222); test: Nano-BRET target engagement assay (B-cat-Halo & TCF4-Luc in HEK293 cells); type: cell-based; details: read-out: NanoBRET Abs IC50
T2 construct: expressed in transfected cells; host or cells: HEK293
T2 sequence (P35222 1-781): T1 sequence (P35222 1-781)

[3] = fluorescence polarization; read-out: beta-Catenin FP IC50

## CC(=O)N1CCC[C@]12CC=CCCCC1(CCCC=CCCCOC(=O)N3CC[C@@](C(=O)N[C@@H](Cc4ccsc4)C(=O)N[C@@H](Cc4csc5ccccc45)C(=O)N[C@H](C(N)=O)C(C)C)(C3)NC(=O)[C@H](CC(C)C)NC(=O)[C@H](Cc3ccccc3)NC(=O)[C@H](C)NC(=O)[C@H](CCCCNC(C)C)NC(=O)[C@H](CN(CC(=O)O)CC(F)(F)F)NC(=O)[C@H](CC(=O)O)NC1=O)NC(=O)[C@H](CC(C)(C)C)NC(=O)[C@H](CC(=O)O)NC2=O (stereo partly drawn) [I-1763, Ac-PL3-Asp-Npg-B5-Asp-TfeGA-iPrLys-Ala-Phe-Leu-PyrS2-3Thi-BztA-Val-NH2]
[1]; [3]
  IC50: 52 nM
[2]; absolute IC50
  IC50: > 20 µM

## CC(=O)N1CCC[C@]12CC=CCCCC1(CCCC=CCCCOC(=O)N3CC[C@@](C(=O)N[C@@H](Cc4ccccc4C(F)(F)F)C(=O)N[C@@H](Cc4csc5ccccc45)C(=O)N[C@@H](CC(=O)N4CCOCC4)C(N)=O)(C3)NC(=O)[C@H](CC(C)C)NC(=O)[C@H](Cc3ccccc3)NC(=O)[C@H](C)NC(=O)[C@H](C)NC(=O)[C@H](Cc3cccc(C(=O)O)c3)NC(=O)[C@H](CC(=O)O)NC1=O)NC(=O)[C@H](CC(C)(C)C)NC(=O)[C@H](CC(=O)O)NC2=O (stereo partly drawn) [I-1614, Ac-PL3-Asp-Npg-B5-Asp-3COOHF-Ala-Ala-Phe-Leu-PyrS2-2F3MeF-BztA-MorphAsn-NH2]
[1]; [3]
  IC50: 15 nM
[2]; absolute IC50
  IC50: 6.4 µM

## CC(=O)N1CCC[C@]12CC=CCCCC1(CCCC=CCCCOC(=O)N3CC[C@@](C(=O)N[C@@H](Cc4ccsc4)C(=O)N[C@@H](Cc4csc5ccccc45)C(=O)N[C@@H](CCC(N)=O)C(N)=O)(C3)NC(=O)[C@H](CC(N)=O)NC(=O)[C@H](Cc3ccccc3)NC(=O)[C@H](C)NC(=O)C3(CCCC3)NC(=O)[C@H]([C@@H](C)O)NC(=O)[C@H](CC(N)=O)NC1=O)NC(=O)[C@H](CC(C)(C)C)NC(=O)[C@H](CC(=O)O)NC2=O (stereo partly drawn) [I-2493, Ac-PL3-Asp-Npg-B5-Asn-Thr-CyLeu-Ala-Phe-Asn-PyrS2-3Thi-BztA-Gln-NH2]
[1]; [3]
  IC50: 267 nM
[2]; absolute IC50
  IC50: > 20 µM

## CC(=O)N1CCC[C@]12CC=CCCCC1(CCCC=CCCCOC(=O)N3CC[C@@](C(=O)N[C@@H](Cc4ccsc4)C(=O)N[C@@H](Cc4csc5ccccc45)C(=O)N[C@@H](CCC(N)=O)C(N)=O)(C3)NC(=O)[C@H](CC(C)C)NC(=O)[C@H](Cc3ccccc3)NC(=O)[C@H](C)NC(=O)[C@H](C)NC(=O)[C@H](CC(=O)O)NC(=O)[C@H](CC(=O)OCCSSc3ccccc3)NC1=O)NC(=O)[C@H](CC(C)(C)C)NC(=O)[C@H](CC(=O)O)NC2=O (stereo partly drawn) [I-1954, Ac-PL3-Asp-Npg-B5-[EtSSPh]AspE-Asp-Ala-Ala-Phe-Leu-PyrS2-3Thi-BztA-Gln-NH2]
[1]; read-out: beta-Catenin FP IC50; fluorescence polarization
  IC50: 994 nM
[2]
  IC50: > 20 µM

## CC(=O)N1CCC[C@]12CC=CCCCC1(CCCC=CCCCOC(=O)N3CC[C@@](C(=O)N[C@@H](Cc4ccsc4)C(=O)N[C@@H](Cc4csc5ccccc45)C(=O)N[C@@H](CO)C(N)=O)(C3)NC(=O)[C@H](Cc3ccccc3)NC(=O)[C@H](Cc3ccccc3)NC(=O)[C@H](C)NC(=O)[C@H](C)NC(=O)[C@H](Cc3ccccc3C(=O)O)NC(=O)[C@H](CC(=O)O)NC1=O)NC(=O)[C@H](CC(C)(C)C)NC(=O)[C@H](CC(=O)O)NC2=O (single isomer, unassigned) [I-1665, Ac-PL3-Asp-Npg-B5-Asp-2COOHF-Ala-Ala-Phe-Phe-PyrS2-3Thi-BztA-Ser-NH2]
[1]; [3]
  IC50: 17 nM
[2]; absolute IC50
  IC50: 9.7 µM

## CC(=O)N1CCC[C@]12CC=CCCCC1(CCCC=CCCCOC(=O)N3CC[C@@](C(=O)N[C@@H](Cc4ccsc4)C(=O)N[C@@H](Cc4csc5ccccc45)C(=O)N[C@@H](Cc4c[nH]cn4)C(N)=O)(C3)NC(=O)[C@H](CC(N)=O)NC(=O)[C@H](Cc3ccccc3)NC(=O)[C@H](C)NC(=O)C(C)(C)NC(=O)[C@H]([C@@H](C)O)NC(=O)[C@H](CC(N)=O)NC1=O)NC(=O)[C@H](CC(C)(C)C)NC(=O)[C@H](CC(=O)O)NC2=O (stereo partly drawn) [I-2414, Ac-PL3-Asp-Npg-B5-Asn-Thr-Aib-Ala-Phe-Asn-PyrS2-3Thi-BztA-His-NH2]
[1]; [3]
  IC50: 7 nM
[2]; absolute IC50
  IC50: > 20 µM

## CC(=O)N1CCC[C@]12CC=CCCCC1(CCCC=CCCCOC(=O)N3CC[C@@](C(=O)N[C@@H](Cc4ccsc4)C(=O)N[C@@H](Cc4csc5ccccc45)C(=O)N[C@@H](CCC(N)=O)C(N)=O)(C3)NC(=O)[C@H](Cc3c[nH]cn3)NC(=O)[C@H](Cc3ccccc3)NC(=O)[C@H](C)NC(=O)C(C)(C)NC(=O)[C@H]([C@@H](C)O)NC(=O)[C@H](CC(N)=O)NC1=O)NC(=O)[C@H](CC(C)(C)C)NC(=O)[C@H](CC(=O)O)NC2=O (stereo partly drawn) [I-2410, Ac-PL3-Asp-Npg-B5-Asn-Thr-Aib-Ala-Phe-His-PyrS2-3Thi-BztA-Gln-NH2]
[1]; [3]
  IC50: 304 nM
[2]; absolute IC50
  IC50: > 20 µM

## CC(=O)N1CCC[C@]12CC=CCCCC1(CCCC=CCCCOC(=O)N3CC[C@@](C(=O)N[C@@H](Cc4ccccc4C(F)(F)F)C(=O)N[C@@H](Cc4csc5c(Cl)cccc45)C(=O)N[C@@H](C)C(N)=O)(C3)NC(=O)[C@H](CC(C)C)NC(=O)[C@H](Cc3ccccc3)NC(=O)[C@H](C)NC(=O)[C@H](CCC(N)=O)NC(=O)[C@H](Cc3cccc(C(=O)O)c3)NC(=O)[C@H](CC(=O)O)NC1=O)NC(=O)[C@H](CC(C)(C)C)NC(=O)[C@H](CC(=O)O)NC2=O (stereo partly drawn) [I-2487, Ac-PL3-Asp-Npg-B5-Asp-3COOHF-Gln-Ala-Phe-Leu-PyrS2-2F3MeF-7C1BztA-Ala-NH2]
[1]; [3]
  IC50: 36 nM
[2]; absolute IC50
  IC50: 4.2 µM

## CC(=O)N1CCC[C@]12CC=CCCCC1(CCCC=CCCCOC(=O)N3CC[C@@](C(=O)N[C@@H](Cc4ccsc4)C(=O)N[C@@H](Cc4csc5ccccc45)C(=O)N[C@@H](CCC(N)=O)C(N)=O)(C3)NC(=O)[C@H](CC(=O)N3CCN(C)CC3)NC(=O)[C@H](Cc3ccccc3)NC(=O)[C@H](C)NC(=O)[C@H](C)NC(=O)[C@H](CC(=O)O)NC(=O)[C@H](CC(=O)O)NC1=O)NC(=O)[C@H](CC(C)(C)C)NC(=O)[C@H](CC(=O)O)NC2=O (stereo partly drawn) [I-1488, Ac-PL3-Asp-Npg-B5-Asp-Asp-Ala-Ala-Phe-MePpzAsn-PyrS2-3Thi-BztA-Gln-NH2]
[1]; [3]
  IC50: 6 nM
[2]; absolute IC50
  IC50: 30.3 µM

## CC(=O)N1CCC[C@]12CC=CCCCC1(CCCC=CCCCOC(=O)N3CC[C@@](C(=O)N[C@@H](Cc4ccccc4Cl)C(=O)N[C@@H](Cc4csc5ccccc45)C(=O)N[C@@H](CO)C(N)=O)(C3)NC(=O)[C@H](Cc3ccccc3)NC(=O)[C@H](Cc3ccccc3)NC(=O)[C@H](C)NC(=O)[C@H](C)NC(=O)[C@H](Cc3ccccc3C(=O)O)NC(=O)[C@H](CC(=O)O)NC1=O)NC(=O)[C@H](CC(C)(C)C)NC(=O)[C@H](CC(=O)O)NC2=O (stereo partly drawn) [I-1662, Ac-PL3-Asp-Npg-B5-Asp-2COOHF-Ala-Ala-Phe-Phe-PyrS2-2C1F-BztA-Ser-NH2]
[1]; [3]
  IC50: 69 nM
[2]; absolute IC50
  IC50: 12 µM

## CC(=O)N1CCC[C@]12CC=CCCCC1(CCCC=CCCCOC(=O)N3CC[C@@](C(=O)N[C@@H](Cc4ccsc4)C(=O)N[C@@H](Cc4csc5ccccc45)C(=O)N[C@@H](CCC(N)=O)C(N)=O)(C3)NC(=O)[C@H](CC(C)C)NC(=O)[C@H](Cc3ccccc3)NC(=O)[C@H](C)NC(=O)[C@H](C)NC(=O)[C@H](CCN(CC(=O)O)C(=O)CCCN(C)C)NC(=O)[C@H](CC(=O)O)NC1=O)NC(=O)[C@H](CC(C)(C)C)NC(=O)[C@H](CC(=O)O)NC2=O (stereo partly drawn) [I-2243, Ac-PL3-Asp-Npg-B5-Asp-[NdiMeButC]GAbu-Ala-Ala-Phe-Leu-PyrS2-3Thi-BztA-Gln-NH2]
[1]; [3]
  IC50: 15 nM
[2]; absolute IC50
  IC50: 25.2 µM

## CC(=O)N1CCC[C@]12CC=CCCCC1(CCCC=CCCCCOC(=O)N3CCC(C(=O)N[C@@H](Cc4ccccc4C(F)(F)F)C(=O)N[C@@H](Cc4csc5ccccc45)C(=O)N[C@@H](CCC(N)=O)C(N)=O)(CC3)NC(=O)[C@H](CC(C)C)NC(=O)[C@H](Cc3ccccc3)NC(=O)[C@H](C)NC(=O)[C@H](C)NC(=O)[C@H](Cc3cccc(C(=O)O)c3)NC(=O)[C@H](CC(=O)O)NC1=O)NC(=O)[C@H](CC(C)(C)C)NC(=O)[C@H](CC(=O)O)NC2=O (stereo partly drawn) [I-2583, Ac-PL3-Asp-Npg-B5-Asp-3COOHF-Ala-Ala-Phe-Leu-SPip3-2F3MeF-BztA-Gln-NH2]
[1]; [3]
  IC50: 224 nM
[2]
  IC50: > 20 µM

## CC(=O)N1CCC[C@]12CC1OC1CCCC1(CCCC=CCCCOC(=O)N3CC[C@@](C(=O)N[C@@H](Cc4ccsc4)C(=O)N[C@@H](Cc4csc5ccccc45)C(=O)N[C@@H](CCC(N)=O)C(N)=O)(C3)NC(=O)[C@H](CC(C)C)NC(=O)[C@H](Cc3ccccc3)NC(=O)[C@H](C)NC(=O)[C@H](C)NC(=O)[C@H](CN(CC(=O)O)CC(F)(F)F)NC(=O)[C@H](CC(=O)O)NC1=O)NC(=O)[C@H](CC(C)(C)C)NC(=O)[C@H](CC(=O)O)NC2=O (stereo partly drawn) [I-2595, Ac-PL3-Asp-Npg-B5-Asp-TfeGA-Ala-Ala-Phe-Leu-PyrS2-3Thi-BztA-Gln-NH2]
[1]; [3]
  IC50: 356 nM
[2]
  IC50: > 20 µM
